Measured values as given in patent US20260232827A1, “ANTIBODY-DRUG CONJUGATES TARGETING NAPI2B AND METHODS OF USE” (Zymeworks BC Inc., priority 2023, published 2026).
Read-outs that look alike come from different tables or passages of the source.

Legend:
[1] = test system: Construct 4 (chimeric human NaPi2b, region 341-358); test: Binding region mapping, flow cytometry on transfected HEK293-6e cells; settings: antibody 20.0 nM, 24 hours at 4° C.
Excerpt: (§1) NaPi2b constructs containing deletions in the main extracellular loop of human NaPi2b, as well as chimeric NaPi2b/NaPi2c constructs concerning this main loop, were generated.
(§2) As a complementary strategy, two additional constructs were designed in which the relevant region of the main loop was deleted such as to mimic NaPi2c/NaPi2a main extracellular loop (Constructs 6-7 in Table 52.1). Clones were generated at GenScript Biotech (Piscataway, NJ).
(§3) Constructs were expressed in HEK293-6e cells as follows. Cells were maintained under standard culture conditions (37° C./5% CO2) with shaking at 110 rpm for suspension and cultured in FreeStyle™ 293 Expression Medium (Thermo Fisher Scientific, Waltham, MA) supplemented with 1% fetal bovine serum (Thermo Fisher Scientific, Waltham, MA) and 1× Penicillin-Streptomycin (Thermo Fisher Scientific, Waltham, MA). Cells were transfected with clones expressing the constructs listed in Table 52.1, at 1 μg of DNA per 1 million cells, using 293Fectin™ Transfection Reagent (Thermo Fisher Scientific, Waltham, MA) and Opti-MEM™ I Reduced Serum Medium (Thermo Fisher Scientific, Waltham, MA), and incubated for 24 hours under standard culture conditions (37° C./5% CO2/110 rpm). Following transfection, cells were seeded at 50,000 cells/well in conical-bottom 96-well plates and treated with a serial dilution of test antibody for 24 hours at 4° C. to prevent internalization. Cells were treated with final concentrations of all humanized antibodies of 200, 20, or 2 nM. Cells were treated with final concentrations of the reference anti-NaPi2a rabbit antibody of 50, 5, or 0.5 nM. […] Following incubation and washing, fluorescence was detected by flow cytometry on a BD LSRFortessa™ Cell Analyzer (BD Biosciences, Franklin Lake, NJ) with 1,000 minimum events collected per well. […] Background-subtracted AF647 Mean Fluorescence Intensity (MFI) values were calculated by subtracting the average MFI of three technical replicates of unstained (no primary antibody) cells.

[2] = test system: Construct 1 (chimeric human NaPi2b, region 239-259); test: as above; settings: 24 hours at 4° C.
Excerpt: as §1, §2, §3

[3] = test system: Construct 2 (chimeric human NaPi2b, region 280-301); test: as above; settings: 24 hours at 4° C.
Excerpt: as §1, §2, §3

[4] = test system: human myeloid progenitors; test: Colony-forming unit (CFU) assay, target-independent cytotoxicity; type: cell-based; settings: 336 h
Excerpt: (§4) The non-specific (target-independent) cytotoxicity of ADCs in human erythroid and myeloid progenitors is of interest as, in the context of off-target toxicities, uptake and trafficking of intact ADCs into normal cells can occur by different mechanisms following administration of ADC in vivo, including target-dependent, for example, NaPi2b-dependent internalization, or target-independent mechanisms, for example, FcγR-dependent internalization or non-specific endocytosis (Mahalingaiah et al., Pharmacol Ther. 2019 August; 200:110-125). Profiling the in vitro target-independent cytotoxicity of ADCs to erythroid and myeloid progenitors may further understanding of their interactions in vivo.
(§5) Briefly, 20,000 human bone marrow-isolated HSC CD34+ were seeded in a semi-solid methylcellulose-based media formulation containing recombinant human interleukin-3 (rhIL-3, 10 ng/mL), rh granulocyte-macrophage-colony-stimulating factor (rhGM-CSF, 10 ng/mL), rh stem cell factor (rhSCF, 50 ng/mL) and Erythropoietin (Epo, 3 U/mL), to induce differentiation into clonogenic progenitors of human erythroid (CFU-erythroid CFU-E, burst-forming unit-erythroid BFU-E), granulocyte-monocyte (CFU-granulocyte-macrophage CFU-GM) and multipotential (CFU-granulocyte-erythroid-monocyte-megakaryocyte CFU-GEMM). […] After treatment, erythroid and myeloid colonies were assessed microscopically and scored. The colonies were divided into the following categories based on size and morphology: CFU-E, BFU-E, CFU-GM and CFU-GEMM. Percent survivability values were calculated based on the number of colonies after treatment over the number of colonies after solvent controls treatment and plotted against test article concentration using GraphPad Prism 9 software (GraphPad Software, La Jolla, CA). IC50 values were calculated based on a non-linear regression log(inhibitor) versus response, variable slope (four parameters) by GraphPad Prism 9.

[5] = test system: human erythroid progenitors; test: as above; type: cell-based; settings: 336 h
Excerpt: as §4, §5

[6] = molecular target: T1, human NaPi2b (Homo sapiens, UniProt O95436); test: Competition binding (epitope binning) by flow cytometry, transfected HEK293-6e cells; settings: unlabeled competitor 100 μg/mL, detection antibody 1 μg/mL
T1 construct: Full length human NaPi2b; host or cells: HEK293-6e
T1 sequence (O95436 1-690): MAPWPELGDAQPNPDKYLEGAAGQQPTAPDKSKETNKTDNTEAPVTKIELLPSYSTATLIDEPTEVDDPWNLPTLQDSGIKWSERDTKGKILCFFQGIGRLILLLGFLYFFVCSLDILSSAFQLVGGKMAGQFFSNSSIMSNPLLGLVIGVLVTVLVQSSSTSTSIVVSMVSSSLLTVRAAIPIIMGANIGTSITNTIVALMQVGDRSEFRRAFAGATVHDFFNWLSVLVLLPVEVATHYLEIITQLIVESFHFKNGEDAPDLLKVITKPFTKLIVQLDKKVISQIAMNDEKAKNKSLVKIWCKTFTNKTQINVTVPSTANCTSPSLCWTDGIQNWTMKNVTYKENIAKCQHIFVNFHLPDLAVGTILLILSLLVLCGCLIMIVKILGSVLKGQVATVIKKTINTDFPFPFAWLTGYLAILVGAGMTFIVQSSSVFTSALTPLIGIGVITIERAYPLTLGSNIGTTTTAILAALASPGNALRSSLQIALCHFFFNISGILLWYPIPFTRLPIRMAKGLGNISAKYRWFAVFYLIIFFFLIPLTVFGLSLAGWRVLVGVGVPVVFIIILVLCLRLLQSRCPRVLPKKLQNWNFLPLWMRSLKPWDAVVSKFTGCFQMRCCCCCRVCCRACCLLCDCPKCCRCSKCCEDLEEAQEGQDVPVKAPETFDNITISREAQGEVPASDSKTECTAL
Method: Binding was assessed by flow cytometry using HEK293-6e cells as described below.
HEK293-6e cells were transfected for ~24 hours to transiently express human NaPi2b (1 μg of pTT5-NaPi2b per 1 million cells) or transfected with GFP (ATUM, Menlo Park, CA; pD2610-v23, also 1 μg of DNA per 1 million cells). Following transfection, human NaPi2b-expressing HEK296-6e cells and transfected GFP-expressing HEK296-6e cells were mixed at 4:1 ratio. Each well of a V-bottom 96-well plate was seeded with 100,000 cells of the mixture and incubated with 100 μg/mL of unlabeled competitor anti-NaPi2b antibody for an hour on ice. Post incubation, cells were washed and stained with 1 μg/mL of AF647-conjugated anti-NaPi2b detection antibodies for an hour on ice. Following staining and washing, fluorescence was detected by flow cytometry on a BD LSRFortessa™ Cell Analyzer (BD Biosciences, Franklin Lake, NJ) with 10,000 minimum events collected per well. […] Percentage inhibition was calculated using the following formula: […]

lifastuzumab [lifastuzumab (v18993)]
Background-Subtracted AF647 Mean Fluorescence Intensity [1]: 1,049 | Background-Subtracted AF647 Mean Fluorescence Intensity ([2]; antibody 2.0 nM): 1,232 | Background-Subtracted AF647 Mean Fluorescence Intensity ([2]; antibody 20.0 nM): 1,697 | Background-Subtracted AF647 Mean Fluorescence Intensity ([2]; antibody 200.0 nM): 1,508 | Background-Subtracted AF647 Mean Fluorescence Intensity ([3]; antibody 20.0 nM): 1,198 | Background-Subtracted AF647 Mean Fluorescence Intensity ([3]; antibody 200.0 nM): 1,232

CC[C@@]1(O)C(=O)OCc2c1cc1n(c2=O)Cc2c-1nc1cc(F)c(C)cc1c2CNC(=O)OCCO [Compound 139, 2-hydroxyethyl (S)-((4-ethyl-8-fluoro-4-hydroxy-9-methyl-3,14-dioxo-3,4,12,14-tetrahydro-1H-pyrano[3′,4′:6,7]indolizino[1,2-b]quinolin-11-yl)methyl)carbamate]
IC50 ([4]; 14 days incubation, read-out: Human IC50, Myeloid progenitors): 1.75 nM | IC50 ([4]; 14 days, read-out: IC50, myeloid progenitors): 1.75 nM | IC50 ([5]; 14 days incubation, read-out: Human IC50, Erythroid progenitors): 1.32 nM | IC50 ([5]; 14 days, read-out: IC50, erythroid progenitors): 1.32 nM

Palivizumab [v16955 (negative control)]
% Inhibition vs. irrelevant mAb, labeled detection antibody v16955 (negative control) [6]: 0% | % Inhibition vs. irrelevant mAb, labeled detection antibody v18992 (MX35) [6]: 0% | % Inhibition vs. irrelevant mAb, labeled detection antibody v18993 (lifastuzumab) [6]: 0% | % Inhibition vs. irrelevant mAb, labeled detection antibody v23855 [6]: 0%
